In one series the target is T1, ALK2 (Homo sapiens, UniProt Q04771, Q207D).
T1 construct: His tag (TEV-cleavable) (N, cleaved yes); made in house; host or cells: Sf9 insect cells (baculovirus)
T1 sequence (Q04771 201-499 Q207D): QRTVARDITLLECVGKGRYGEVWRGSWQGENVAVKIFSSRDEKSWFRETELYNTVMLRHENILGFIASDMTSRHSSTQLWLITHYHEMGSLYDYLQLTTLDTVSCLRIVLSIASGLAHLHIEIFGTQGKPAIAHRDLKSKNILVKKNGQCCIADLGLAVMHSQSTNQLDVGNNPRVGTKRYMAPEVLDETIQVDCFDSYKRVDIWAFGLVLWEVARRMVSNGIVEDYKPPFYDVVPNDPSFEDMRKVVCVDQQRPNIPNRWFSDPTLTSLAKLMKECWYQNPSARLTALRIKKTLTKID
As to the kind of experiment: Thermal shift kinase assay ALK2. The settings on record: ALK2 minus ALK5. The format is binding. How it is done:
Thermal melting experiments were performed using a Real Time PCR machine Mx3005p (Stratagene) with a protein concentration of 1-2 μM and 10 μM inhibitor as described by Niesen et al., Nat Protoc 2007, 2, 2212-21. Recombinant human kinases for DSF screening were prepared by SGC using the published methods of Sanvitale et al., PLoS One 2013, 8, e62721. The potency and selectivity of certain compounds of the invention based on thermal shift kinase and ligand induced transcriptional activity assays are shown in Table 2.

In a further series the test system is BMP6. As to the kind of experiment: Ligand induced transcriptional activity assay BMP6 (BRE-Luc). The format is cell-based. The settings on record: cell-based signaling inhibition; read-out: BMP6 IC50.
The test system of series [1] is HePG2 hepatocarcinoma cells. The format is cell-based. The settings on record: human. As for the experimental part: The cells were incubated for 2 h (37° C. and 5% CO2) and allowed to settle and attach. Compounds of interest or DMSO were diluted in DMEM and added at final compound concentrations of 1 μM, 10 μM, and 100 μM. Cells were incubated for 4 hours and 24 hours after which the media was discarded. Cells were lysed by adding 30 μL of passive lysis buffer (Promega) and shaken at RT for 15 min. Cell viability was determined by quantifying the ATP present in each well by adding 10 μL of CellTiter-Glo (Promega) per well and measuring the light output Spectramax L luminometer (Molecular Devices) with an integration time of one second per well. Data was normalized to 100% viability for cells receiving only DMSO without any concurrent compound.

Like-named read-outs stand apart in the source and are kept apart here.

A word on the IC50: it is the point on the concentration scale where inhibition reaches its midpoint.

As for `COc1cc(-c2cc(-c3cccc(NS(C)(=O)=O)c3)cnc2N)cc(OC)c1OC` [Compound 13, N-(3-(6-amino-5-(3,4,5-trimethoxyphenyl)pyridin-3-yl)phenyl)methanesulfonamide], the ΔTmDiff. on ALK2 is listed as 0.9. In addition, in the series with BMP6, the IC50 came to 60 ± 10 nM. Further, the Cell viability in series [1] (4 h, 1 μM) is reported as 97%; in series [1] (4 h, 10 μM), 100%; in series [1] (4 h, 100 μM), 95%; in series [1] (24 h, 1 μM), 101%; in series [1] (24 h, 10 μM) it was 98%; in series [1] (24 h, 100 μM), 82%.

As for `COc1cc(-c2cc(-c3cccc(N4CCNCC4)c3)cnc2N)cc(OC)c1OC` [Compound 14, 5-(3-(piperazin-1-yl)phenyl)-3-(3,4,5-trimethoxyphenyl)pyridin-2-amine], on ALK2, the ΔTmDiff. is given as 0.8. Moreover, the Cell viability in series [1] (4 h, 1 μM) is 96%; in series [1] (4 h, 10 μM), 110%; in series [1] (4 h, 100 μM), 99%; in series [1] (24 h, 1 μM), 99%; in series [1] (24 h, 10 μM), 93%.

As to `COc1ccc(-c2cc(-c3ccc(N4CCNCC4)cc3)cnc2N)cc1OC` [Compound 16, 3-(3,4-dimethoxyphenyl)-5-(4-(piperazin-1-yl)phenyl)pyridin-2-amine], the ΔTmDiff. on ALK2 was 4.3.

For `COc1cc(OC)cc(-c2cc(-c3ccc(N4CCNCC4)cc3)cnc2N)c1` [Compound 17, 3-(3,5-dimethoxyphenyl)-5-(4-(piperazin-1-yl)phenyl)pyridin-2-amine], at ALK2, the ΔTmDiff. was 3.5. Further, in the series with BMP6, the IC50 was determined as 40 ± 10 nM. Further, the Cell viability in series [1] (4 h, 1 μM) stood at 95%; in series [1] (4 h, 10 μM), 99%; in series [1] (24 h, 1 μM), 99%; in series [1] (24 h, 10 μM), 80%.

As for `COc1cccc(-c2cc(-c3ccc(N4CCNCC4)cc3)cnc2N)c1` [Compound 18, 3-(3-methoxyphenyl)-5-(4-(piperazin-1-yl)phenyl)pyridin-2-amine], the ΔTmDiff. at ALK2 was determined as 3.8. For the same compound, the Cell viability amounted to 98% in series [1] (4 h, 1 μM); 101% in series [1] (4 h, 10 μM); 106% in series [1] (4 h, 100 μM); 103% in series [1] (24 h, 1 μM); 100% in series [1] (24 h, 10 μM).

In the case of `Nc1ncc(-c2ccc(N3CCNCC3)cc2)cc1-c1ccc2c(c1)OCCO2` [Compound 19, 3-(2,3-dihydrobenzo[b][1,4]dioxin-6-yl)-5-(4-(piperazin-1-yl)phenyl)pyridin-2-amine], on ALK2, the ΔTmDiff. is recorded as 4.0. In addition, the IC50 with BMP6 was 730 ± 100 nM. Further, the Cell viability is on record as 100% in series [1] (4 h, 1 μM); 102% in series [1] (4 h, 10 μM); 91% in series [1] (4 h, 100 μM); 103% in series [1] (24 h, 1 μM); 95% in series [1] (24 h, 10 μM).

As for `COc1ccc(-c2cc(-c3ccc(N4CCNCC4)cc3)cnc2N)cc1` [Compound 20, 3-(4-methoxyphenyl)-5-(4-(piperazin-1-yl)phenyl)pyridin-2-amine], the ΔTmDiff. at ALK2 is 4.5. Further, the Cell viability is 106% in series [1] (4 h, 1 μM); 102% in series [1] (4 h, 10 μM); 108% in series [1] (24 h, 1 μM); 104% in series [1] (24 h, 10 μM).

As to `CC(C)Oc1cccc(-c2cc(-c3ccc(N4CCNCC4)cc3)cnc2N)c1` [Compound 21, 3-(3-isopropoxyphenyl)-5-(4-(piperazin-1-yl)phenyl)pyridin-2-amine], the ΔTmDiff. on ALK2 is listed as 1.0. In addition, the Cell viability is recorded as 94% in series [1] (4 h, 1 μM); 105% in series [1] (4 h, 10 μM); 98% in series [1] (24 h, 1 μM); 82% in series [1] (24 h, 10 μM).

In the case of `COc1cc(-c2cc(-c3ccc(N4CCNCC4)cc3)cnc2N)ccc1Cl` [Compound 22, 3-(4-chloro-3-methoxyphenyl)-5-(4-(piperazin-1-yl)phenyl)pyridin-2-amine], on ALK2, the ΔTmDiff. came out at 2.7. The IC50 in the series with BMP6 came to 160 ± 10 nM. In addition, the Cell viability came to 96% in series [1] (4 h, 1 μM); 104% in series [1] (4 h, 10 μM); 101% in series [1] (24 h, 1 μM); 81% in series [1] (24 h, 10 μM).

On to `COc1cc(-c2cc(-c3ccc(N4CCNCC4)cc3)cnc2N)ccc1C` [Compound 23, 3-(3-methoxy-4-methylphenyl)-5-(4-(piperazin-1-yl)phenyl)pyridin-2-amine], for which the ΔTmDiff. on ALK2 amounted to 3.8. For the same compound, the Cell viability in series [1] (4 h, 1 μM) came to 95%; in series [1] (4 h, 10 μM), 101%; in series [1] (24 h, 1 μM), 98%; in series [1] (24 h, 10 μM) it was 86%.

`CNc1ncc(-c2ccc(N3CCNCC3)cc2)cc1-c1cc(OC)c(OC)c(OC)c1` [Compound 24, N-methyl-5-(4-(piperazin-1-yl)phenyl)-3-(3,4,5-trimethoxyphenyl)pyridin-2-amine]: the ΔTmDiff. on ALK2 is −0.5. Further, the Cell viability is 95% in series [1] (4 h, 1 μM); 105% in series [1] (4 h, 10 μM); 86% in series [1] (4 h, 100 μM); 101% in series [1] (24 h, 1 μM); 86% in series [1] (24 h, 10 μM).

In the case of `Nc1ncc(-c2ccc(N3CCNCC3)cc2)cc1-c1ccnc2ccccc12` [Compound 29], the ΔTmDiff. on ALK2 is reported as 3.4. Moreover, the IC50 with BMP6 stood at 110 ± 50 nM. For the same compound, the Cell viability in series [1] (4 h, 1 μM) amounted to 91%; in series [1] (4 h, 10 μM), 104%; in series [1] (4 h, 100 μM) it was 108%; in series [1] (24 h, 1 μM), 108%; in series [1] (24 h, 10 μM), 84%.

With `COc1cc(OC)cc(-c2cncc(-c3ccc(N4CCNCC4)cc3)c2)c1` [Compound 33, 1-(4-(5-(3,5-dimethoxyphenyl)pyridin-3-yl)phenyl)piperazine], the ΔTmDiff. at ALK2 is on record as 4.7. Also, the Cell viability was determined as 95% in series [1] (4 h, 1 μM); 100% in series [1] (4 h, 10 μM); 101% in series [1] (24 h, 1 μM); 92% in series [1] (24 h, 10 μM).

Consider `Cc1nc(Nc2ncc(C(=O)Nc3c(C)cccc3Cl)s2)cc(N2CCN(CCO)CC2)n1` [Dasatinib, reference compound], for which the Cell viability in series [1] (4 h, 1 μM) amounted to 94%; in series [1] (4 h, 10 μM) it was 107%; in series [1] (24 h, 1 μM) it was 87%.

`C#Cc1cccc(Nc2ncnc3cc(OCCOC)c(OCCOC)cc23)c1` [Erlotinib, reference compound]: the Cell viability in series [1] (4 h, 1 μM) was found to be 96%; in series [1] (4 h, 10 μM), 107%; in series [1] (4 h, 100 μM), 108%; in series [1] (24 h, 1 μM) it was 99%; in series [1] (24 h, 10 μM), 84%; in series [1] (24 h, 100 μM), 84%.

On to `COc1cc2ncnc(Nc3ccc(F)c(Cl)c3)c2cc1OCCCN1CCOCC1` [Gefitinib, reference compound], for which the Cell viability in series [1] (4 h, 1 μM) is listed as 93%; in series [1] (4 h, 10 μM) it was 105%; in series [1] (4 h, 100 μM), 104%; in series [1] (24 h, 1 μM), 98%; in series [1] (24 h, 10 μM), 82%; in series [1] (24 h, 100 μM), 85%.

Take `CS(=O)(=O)CCNCc1ccc(-c2ccc3ncnc(Nc4ccc(OCc5cccc(F)c5)c(Cl)c4)c3c2)o1` [Lapatinib, reference compound]: the Cell viability came out at 100% in series [1] (4 h, 1 μM); 104% in series [1] (4 h, 10 μM); 104% in series [1] (4 h, 100 μM); 98% in series [1] (24 h, 1 μM); 92% in series [1] (24 h, 10 μM); 89% in series [1] (24 h, 100 μM).

As to `Cc1cn(-c2cc(NC(=O)c3ccc(C)c(Nc4nccc(-c5cccnc5)n4)c3)cc(C(F)(F)F)c2)cn1` [Nilotinib, reference compound], the Cell viability came to 99% in series [1] (4 h, 1 μM); 106% in series [1] (4 h, 10 μM); 105% in series [1] (4 h, 100 μM); 100% in series [1] (24 h, 1 μM); 101% in series [1] (24 h, 10 μM); 91% in series [1] (24 h, 100 μM).

Take `N#CC[C@H](C1CCCC1)n1cc(-c2ncnc3[nH]ccc23)cn1` [Ruxolitinib, reference compound]: the Cell viability is 101% in series [1] (4 h, 1 μM); 105% in series [1] (4 h, 10 μM); 88% in series [1] (4 h, 100 μM); 100% in series [1] (24 h, 1 μM); 90% in series [1] (24 h, 10 μM).

Consider `CCN(CC)CCNC(=O)c1c(C)[nH]c(/C=C2\C(=O)Nc3ccc(F)cc32)c1C` [Sunitinib, reference compound], for which the Cell viability in series [1] (4 h, 1 μM) worked out at 97%; in series [1] (4 h, 10 μM), 107%; in series [1] (24 h, 1 μM), 96%.

On to `CCCS(=O)(=O)Nc1ccc(F)c(C(=O)c2c[nH]c3ncc(-c4ccc(Cl)cc4)cc23)c1F` [Vemurafenib, reference compound], for which the Cell viability in series [1] (4 h, 1 μM) worked out at 103%; in series [1] (4 h, 10 μM), 100%; in series [1] (4 h, 100 μM), 102%; in series [1] (24 h, 1 μM), 95%; in series [1] (24 h, 10 μM), 77%.
